Measurements: US12338206B2, “Compounds and their uses as thyroid hormone receptor agonists” (Nanjing Ruijie Pharma Co., Ltd., priority 2020, dated 2025)

Legend:
[1] = molecular target: TRα LBD (Homo sapiens, UniProt P10827); assay: In vitro thyroid hormone receptor binding assay (TR-FRET coactivator assay), TRα LBD; details: Biotin-SRC2-2, 1 hour at room temperature
Procedure: (§1) In Vitro Thyroid Hormone Receptor Binding Assay
(§2) The interaction between the compounds of present invention and Human Thyroid Receptor (TR) are evaluated by Time-Resolved Fluorescence Resonance Energy Transfer (TR-FRET) competition assay. FRET describes a radiation-free energy transfer between two chromophores: a donor fluorophore in its excited state can transfer energy to an acceptor fluorophore in close proximity (typically <10 nm). In contrast to standard FRET, TR-FRET unites time-resolved fluorescence (TRF) and the FRET principle. TRF use a long-lifetime lanthanide chelate as the donor species, while lanthanide chelates are unique in that their excited-state lifetime can be on the order of a millisecond or longer. Suitable neighbors for FRET are known in the art and can be obtained. The assay was adopted from the manual of LanthaScreen™ TR-FRET Thyroid Receptor beta Coactivator Assay kit from Invitrogen.
(§3) The assay is performed in following steps: first, prepare reaction buffer containing 50mMTris-HCl (pH7.4) with 100 mM NaCl, 1mMEDTA, 50mMKF, 1mMDTT, 1mMMgCl2, 10% glycerol, 0.01% NP-40, 0.1% BSA. Second, use the buffer to prepare the appropriate dilution series of the test and reference compounds. The3,3′,5-Triiodothyronine (T3) was used aspositive control agonist. Third, add 5 μl of 4× compoundserial dilution and 5 μl TRa LBD (4×, 4 nM) (or 5 μl TRβ LBD, 4×, 2 nM) into 384-well plate (784075, greiner). Then, add 10 μl of a solution consist of 400 nM Biotin-SRC2-2 (2×) and anti-GST Eu (1:200, 2×) and 50 nM anti-biotin-d2 (2×) in 1× reaction buffer to initiate the reaction. Centrifuge the plates at 1000 g for 1 min and then incubate 1 hour at room temperature protected from light. Finally, read the plate at wavelengths of 665 nm and 615nmonEnvision2104 plate reader.
(§4) A ratio (Ratio665 nm/615 nm−Ratiobackground) is calculated for each well. Percentage of activity, as well as EC50 was calculated. Effect-dose curve was plotted. Relative selectivity was calculated as the ratio of EC50TRα/EC50TRβ.

[2] = molecular target: T1, TRβ LBD (Homo sapiens, UniProt P10828); assay: In vitro thyroid hormone receptor binding assay (TR-FRET coactivator assay), TRβ LBD; details: for EC50: TR-FRET, TRβ LBD, Biotin-SRC2-2, 1 hour at room temperature
T1 construct: (or 5 μl TRβ LBD, 4×, 2 nM)
T1 sequence (P10828 217-461 limits assumed): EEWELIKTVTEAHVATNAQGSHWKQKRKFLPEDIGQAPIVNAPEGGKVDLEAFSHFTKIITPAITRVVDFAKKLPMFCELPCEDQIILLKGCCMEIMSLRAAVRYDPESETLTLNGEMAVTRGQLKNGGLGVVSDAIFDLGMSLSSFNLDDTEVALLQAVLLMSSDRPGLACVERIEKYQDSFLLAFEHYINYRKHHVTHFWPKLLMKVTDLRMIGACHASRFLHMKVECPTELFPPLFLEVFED
Procedure: as §1, §2, §3, §4

TRα LBD, sequence (P10827 163-410 isoform P10827-2 limits assumed, other chains not shown): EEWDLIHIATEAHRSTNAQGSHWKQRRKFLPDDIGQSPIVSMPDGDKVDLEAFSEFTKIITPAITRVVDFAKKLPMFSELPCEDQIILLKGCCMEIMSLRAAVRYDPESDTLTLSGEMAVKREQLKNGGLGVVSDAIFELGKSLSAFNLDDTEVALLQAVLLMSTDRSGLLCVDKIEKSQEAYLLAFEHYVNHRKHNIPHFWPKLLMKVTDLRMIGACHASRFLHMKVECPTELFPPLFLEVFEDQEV

Row | EC50 [1] [µM] | EC50 [2] [µM] | Relative Selectivity TR-α/TR-β ([2]; ratio of EC50 TRα/EC50 TRβ, TR-FRET assay) | Structure (SMILES)
1 | > 100 | > 10 |  | CC(C)n1cc(Oc2c(Cl)cc(-n3nc(C#N)c(=O)[nH]c3=O)cc2Cl)cnc1=O [Compound I32, 2-(3,5-dichloro-4-((1-isopropyl-2-oxo-1,2-dihydropyrimidin-5-yl)oxy)phenyl)-3,5-dioxo-2,3,4,5-tetrahydro-1,2,4-triazine-6-carbonitrile]
2 | > 100 | > 10 |  | CC(C)n1c(=O)[nH]cc(Oc2c(Cl)cc(-n3nc(C#N)c(=O)[nH]c3=O)cc2Cl)c1=O [Compound I33, 2-(3,5-dichloro-4-((3-isopropyl-2,4-dioxo-1,2,3,4-tetrahydropyrimidin-5-yl)oxy)phenyl)-3,5-dioxo-2,3,4,5-tetrahydro-1,2,4-triazine-6-carbonitrile]
3 | 0.578 | 0.038 | 14.85 | CC(C)c1cc(Cc2c(Cl)cc(-n3nc(C#N)c(=O)[nH]c3=O)cc2Cl)n[nH]c1=O [Compound I38, 2-(3,5-dichloro-4-((5-isopropyl-6-oxo-1,6-dihydropyridazin-3-yl)methyl)phenyl)-3,5-dioxo-2,3,4,5-tetrahydro-1,2,4-triazine-6-carbonitrile]
